This note sets out measurements from patent publication EP0329225A2, “Acetylenic esters” (MERCK & CO. INC., priority 1988, dated 1989).

One experiment deals with T1, Acetoacetyl-coenzyme A thiolase (Rattus norvegicus, UniProt Q5XI22).
T1 construct: prepared from the livers of Sprague Dawley rats treated in the diet for one week with 0.075% lovastatin to induce the enzyme; from tissue; host or cells: liver of Sprague Dawley rats fed lovastatin
T1 sequence (Q5XI22 whole entry): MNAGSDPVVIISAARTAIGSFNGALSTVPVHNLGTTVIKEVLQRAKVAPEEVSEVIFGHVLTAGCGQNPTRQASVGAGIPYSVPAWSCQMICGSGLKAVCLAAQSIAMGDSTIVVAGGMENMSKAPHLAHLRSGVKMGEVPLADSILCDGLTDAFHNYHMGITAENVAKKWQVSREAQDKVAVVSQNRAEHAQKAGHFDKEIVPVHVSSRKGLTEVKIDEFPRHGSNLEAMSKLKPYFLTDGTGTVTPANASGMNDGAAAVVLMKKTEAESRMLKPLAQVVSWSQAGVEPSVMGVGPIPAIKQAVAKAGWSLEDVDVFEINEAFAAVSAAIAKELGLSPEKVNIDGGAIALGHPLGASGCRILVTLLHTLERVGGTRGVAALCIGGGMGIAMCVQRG
As to the kind of experiment: Acetoacetyl-coenzyme A thiolase inhibition (coupled spectrophotometric assay, NADH oxidation at 340 nm). It counts as biochemical, Sprague Dawley rats.
Settings: not given
The method, then:
Acetoacetyl-coenzyme A thiolase was prepared from the livers of Sprague Dawley rats treated in the diet for one week with 0.075% lovastatin to induce the enzyme. Acetoacetyl-coenzyme A thiolase was purified through the DEAE-cellulose step essentially as described by Mehrabian et al., J. Biol. Chem., 261, 16249-16255 (1986), but modified slightly by carrying out the 30-50% ammonium sulfate precipitation of the enzyme and a dialysis before the DEAE-cellulose step. The 0.06 M eluate described by Mahrabian et al. contained the acetoacetyl-coenzyme A thiolase. The isolate was concentrated by ammonium sulfate precipitation, dissolved in the buffer used for elution, and stored at -70°C.
Inhibition of acetoacetyl coenzyme A thiolase was measured by coupling the formation of acetoacetyl-coenzyme A to its subsequent reduction of β-hydroxybutyryl-coenzyme A dehydrogenase to β-hydroxybutyryl-coenzyme A and monitoring the resultant oxidation of NADH with a spectrophotometer set at 340 nm. Mixtures of 0.016 units of β-hydroxybutyryl-coenzyme A dehydrogenase, 16.2 µg of acetoacetyl coenzyme A thiolase, and test quantities of the test compounds dissolved in dimethyl sulfoxide and water to bring to final volume were incubated with 71.4 mM Tris-HCl (pH 7.5). 0.71 mM EDTA, 10.7 mM magnesium chloride, 0.53 mM dithiothreitol, 0.21 mM NADH (total volume of 0.140 ml) until a stable base line was obtained. Reaction was initiated by addition of 10 µl of acetoacetyl-coenzyme A, giving a concentration of 2.85 mM. Reaction was measured at room temperature for a time period necessary to produce a measurable reaction rate. An IC₅₀, the concentration that inhibits 50% of the acetoacetyl-coenzyme A thiolase activity, was determined for each test compound. The IC₅₀'s for representative compounds of this invention are listed in Table I. The IC₅₀ of 5-(1-hydroxy-2,4,6-heptatriynyl)-2-oxo-1,3-dioxolane-4-heptanoic acid has been reported as 1 x 10⁻⁸ M. See U.S. Patent Application Serial No. 07/053,973, filed May 26, 1987.
`COC(=O)CCCCCCCCC(O)C#CC#CC#C[Si](C)(C)C` (stereo not drawn) [Ex. 3, 10-Hydroxy-16-(trimethylsilyl)-11,13,15-hexadecatriynoic acid, methyl ester] displayed an IC50 of 17 nM.
The same measure, in the same setting: the same measure for `COC(=O)CCCCCCCCC(O)C#CC#C[Si](C)(C)C` (stereo not drawn) [Ex. 5, 10-Hydroxy-14-(trimethylsilyl)-11,13-tetradecadiynoic acid, methyl ester]: above 62000 nM.

Still in this experiment, the particulars now being: enzyme from livers of lovastatin-treated rats; room temperature, pH 7.5; read-out: IC₅₀.
Turning to `C#CC#CC#C[C@@H](O)[C@@H](O)[C@@H](O)CCCCCCC(=O)O` [Ex. 1, 8(S),9(S),10(R)-Trihydroxy-11,13,15-hexadecatriynoic acid], the IC50 was 150 nM.
Still for that read-out and setting: the same measure for `C#CC#CC#C[C@@H](O)[C@@H](O)[C@@H](O)CCCCCCC(=O)OC` [Ex. 2, 8(S),9(S),10(R)-Trihydroxy-11,13,15-hexadecatriynoic acid, methyl ester]: 38000 nM; for `C#CC#CC#CC(O)CCCCCCCCC(=O)OC` (stereo not drawn) [Ex. 4, 10-Hydroxy-11,13,15-hexadecatriynoic acid, methyl ester]: 24 nM.
Still for that read-out and setting: under `C#CC#CC(O)CCCCCCCCC(=O)OC` (stereo not drawn) [Ex. 6, 10-Hydroxy-11,13-tetradecadiynoic acid, methyl ester] stands 26000 nM.
